Experiments:
Format in all cases: in vivo, human
[1] = system: adult patients with Gaucher disease Type 3; experiment: GD3 clinical study: resting-state fMRI connectivity; details: Patient 5 likely non-compliant, GD3, 15 mg/day oral + imiglucerase
Experimental: Neurological function—was further evaluated using functional magnetic resonance imaging (fMRI). Patient 2 was excluded because no fMRI data was collected at the Week 52 session. Resting-state fMRI screening sessions were performed at baseline screening, Week 26, and Week 52 visits. Connectivity estimates from four subjects (Patients 1, 3, 4 and 5) were entered into second-level analyses as a “compliant” group. Patient 5 was isolated due to likely non-compliance with study medication, as described above. Analyses were performed as described elsewhere (Smith et al. [2009]).
Spatial analysis of the connectivity between different anatomic regions of the brain is performed to define a correlation coefficient for regressed voxelwise mean intensity.

[2] = system: adult patients with Gaucher disease Type 3; experiment: GD3 clinical study: interstitial lung disease by high-resolution CT; details: after 26 weeks; GD3, 15 mg/day oral + imiglucerase
Experimental: During the study patients were evaluated for safety and tolerability, CSF and plasma biomarkers (glucosylceramide, GL-1; glucosylsphingosine, lyso-GL1), pharmacokinetics, markers for systemic disease (spleen and liver volume measured by magnetic resonance imaging (MRI), platelet count, hemoglobin levels), indicia of interstitial lung disease (high resolution pulmonary computed tomography (CT)), and horizontal saccadic eye movement.
Severity of interstitial lung disease was characterized by the percent of lung volume affect by ILD as measured by high-resolution CT in four lung regions (aortic arch, carina, lower zone L3, lower zone L4). Patients were rated as having severe ILD (51-100% of lung volume affected), moderate ILD (26-50% of lung volume affected), mild ILD (1-25% of lung volume affected) or normal (0% of lung volume showing ILD).

[3] = system: chitotriosidase (CHITO), GM3, GPNMB, ceramide; experiment: GD3 clinical study: exploratory biomarkers; details: GD3, 15 mg/day oral + imiglucerase
Experimental: Four exploratory biomarkers were quantified in plasma, serum and/or CSF of GD3 patients at week 4 and week 26: chitotriosidase (CHITO; an enzyme known to be elevated in GD patients) was measured in CSF and serum; GM3 (a glycosphingolipid marker known to be elevated in GD patients) was measured in CSF and plasma; and glycoprotein nonmetastatic melanoma protein B (GPNMB; reportedly a biomarker of neuropathic GD3) was measured in CSF. The results are shown in the table below as percent change from baseline at week 4 and week 26 for each parameter:
In addition, exploratory biomarkers were quantified in CSF of GD3 patients: ceramide (the precursor of GL-1), chitotriosidase (CHITO), GM3, and GPNMB.

## CC(C)(NC(=O)O[C@@H]1CN2CCC1CC2)c1csc(-c2ccc(F)cc2)n1 [Compound 2, (S)-quinuclidin-3-yl (2-(2-(4-fluorophenyl)thiazol-4-yl)propan-2-yl)carbamate]
[1]
  connectivity between the default mode (resting) network and the executive function network: increased in Patients 1, 3, 4 and 6, but decreased in Patient 5
[2]
  patients showing regression of ILD: 4 out of 5
[3]; 4, 26 and 52 weeks, the four of six patients with measurable GM3 at baseline
  GM3 in CSF: undetectable
[3]; after 52 weeks
  CSF concentrations of ceramide, CHITO or GPNMB: no significant changes
